For the assay, the system named is saliva bacteria (facultative anaerobic oral bacteria collected from saliva). Kind of assay: In vitro killing of saliva bacteria. The settings on record: 0.5 h; chlorhexidine 0.12%, positive control; data not shown; read-out: log reduction in facultative anaerobic saliva organisms. The class given is cell-based. The procedure: The killing assay of saliva bacteria was done according to procedures established by Helmerhorst et al. (1999). Unstimulated saliva was collected from four healthy individuals who had refrained from eating for at least 2 hours. The study was approved by the Institutional Review Board of the Walter Reed Army Institute of Research and informed consent and sample donation consent were obtained from all volunteers. Pooled saliva was initially spun at 500 r.p.m. in an Eppendorf centrifuge (model 5810R) for 10 min at 4° C. to remove epithelial cells and mucus. Saliva bacteria were collected by spinning the supernatant at 4000 r.p.m. for 15 min at 4° C. The pellet was washed three times in 10 mM potassium phosphate buffer (PPB) and suspended in the same buffer to give approximately 1.0×10^7 cells ml^−1. Bacterial suspension (250 μl) was mixed with 250 μl peptide to obtain final peptide concentrations of 12.5, 25, 50, 100 and 200 μg ml^−1. After incubation of the mixture at 37° C. for 30 min, cells were spun down to remove KSL, washed once in PBS having a pH of 7.4 and suspended in PBS before spiral-plating 50 μl of the treated and untreated cells in different dilutions on BAP. The negative control was exposed to buffer only. Saliva bacteria exposed to 0.12% aqueous chlorhexidine served as positive controls. […]

For `[H]/N=C(\N/C(=N/[H])NCCCCCCNC(=N)NC(=N)Nc1ccc(Cl)cc1)Nc1ccc(Cl)cc1` [chlorhexidine, reference compound], the log reduction at 0.12 % was greater than 3.

For the origin of these results see patent publication US7494980B2, “Antimicrobial peptide and methods of use thereof” (The United States of America as represented by the …, priority 2003, dated 2009).
